# Data: patent publication US6080755A, “1,9-diazabicyclo[4.3.0]nona-3,8-diene derivatives” (Wyeth Lederle Japan, Ltd., priority 1995, dated 2000)
# System: Isolated Rat Hearts
# Assay: Cardioprotective Effect in Ischemia/Reperfusion Model of Isolated Rat Hearts
# Parameters: species or system Male Sprague-Dawley rats
# Conditions: 10^-5 mol of test compound in 0.04% DMSO; 25 min global ischemia, after reperfusion for 30 minutes
# Experimental: Cardioprotective Effect in Ischemia/Reperfusion Model of Isolated Rat Hearts:
# Male Sprague-Dawley rats (300-500 g) were used. The rats were anesthetized using 40 mg/kg of sodium pentobarbital (i.p.) after treating with heparin (i.v. 1000 U/kg). The hearts were excised and moved quickly to a Langendorlf apparatus where they were perfused with Krebs-Henseleit bicarbonate buffer (118 mM of NaCl; 4.7 mM of KCl; 2.55 mM of CaCl2; 1.18 mM of KH2 PO4; 24.88 mM of NaHCO3; 11.1 mM of glucose) bubbled with mixture gas of 95% oxygen and 5% carbon dioxide at a constant perfusion pressure (75 mmHg). The parameters of cardiac function were determined as follows.
# The physiological saline-filled latex balloon was inserted into the left ventricle and connected to a pressure transducer for measurement of left ventricular pressure (LVP). The volume of the balloon was adjusted to produce an LV end-diastolic pressure at 5-10 mmHg. The heart rate was determined with a tachometer and coronary flow was determined with an extra-corporeal electromagnetic flow tube.
# For the equilibration, the hearts were perfused for initial 15-20 minutes. Then, treatment with the test compounds was begun 15 minutes before the onset of ischemia. Global ischemia was initiated by shutting off the perfusate flow and this was maintained for 25 minutes. The hearts were submerged in 37° C. buffer during ischemia. Reperfusion was then begun with the test compounds and the hearts were allowed to recover for 30 minutes. The cardiac function was measured before the treatment of the test compounds, before ischemia and after reperfusion. The hearts were treated with 10^-5 mol of the test compounds dissolved in 0.04% of dimethylsulfoxide (DMSO), in comparison with the vehicle, i.e., 0.04% of DMSO alone, in the perfusate.
# The cardioprotective effects of the test compounds were evaluated on the basis of the extent of recovery of LVP after reperfusion for 30 minutes.
row,Molecule,"LVDP(%): recovery of LVP, left ventricular developed pressure against the LVP before ischemia as 100% [%]"
1,"CCOC(=O)C1=NN2CC(C)=C(C)CC2(C(=O)OCC)C1S (centres unmarked) [Compound No. 82, 6,8-Diethoxycarbonyl-3,4-dimethyl-7-mercapto-1,9-diazabicyclo[4.3.0]nona-3,8-diene]",61.5
2,"CCCOC(=O)C1=NN2CC(C)=C(C)CC2(C(=O)OCCC)C1O (centres unmarked) [Compound No. 124, 3,4-Dimethyl-6,8-dipropoxycarbonyl-7-hydroxy-1,9-diazabicyclo[4.3.0]nona-3,8-diene]",84.0
3,"CCOC(=O)C1=NN2CC(C)=C(C)CC2(C(=O)OCC)C1N (centres unmarked) [Compound No. 81, 7-Amino-6,8-diethoxycarbonyl-3,4-dimethyl-1,9-diazabicyclo[4.3.0]nona-3,8-diene]",56.2
4,"COC(=O)C1=NN2C(c3cccc([N+](=O)[O-])c3)C=CC(c3cccc([N+](=O)[O-])c3)C2(C(=O)OC)C1O (centres unmarked) [Compound No. 48, 6,8-Dimethoxycarbonyl-2,5-bis(3-nitrophenyl)-7-hydroxy-1,9-diazabicyclo[4.3.0]nona-3,8-diene]",72.4
5,"COC(=O)C1=NN2C(c3ccccc3)C=CC(c3ccccc3)C2(C(=O)OC)C1O (centres unmarked) [Compound No. 31, 6,8-Dimethoxycarbonyl-2,5-diphenyl-1,9-diazabicyclo [4.3.0]nona-3,8-dien-7-ol]",85.1
6,"6,8-Diethoxycarbonyl-3(or 4)-methy-1,9-diazabicyclo [4.3.0]nona-3,8-dien-7-ol [Compound No. 35]",50.6
7,"COC(=O)C1=NN2C(c3ccc(C#N)cc3)C=CC(c3ccc(C#N)cc3)C2(C(=O)OC)C1O (centres unmarked) [Compound No. 50, 6,8-Dimethoxycarbonyl-2,5-di(4-cyano)phenyl-7-hydroxy-1,9-diazabicyclo[4.3.0]nona-3,8-diene]",69.8
8,"CCCOC(=O)C1=NN2C(c3ccccc3)C=CC(c3ccccc3)C2(C(=O)OCC)C1O (centres unmarked) [Compound No. 139, 2,5-Diphenyl-6-ethoxycarbonyl-7-hydroxy-8-propoxycarbonyl-1,9-diazabicyclo[4.3.0]nona-3,8-diene]",62.5
9,"COC(=O)C1=NN2C(c3ccc(C)cc3)C=CC(c3ccc(C)cc3)C2(C(=O)OC)C1O (centres unmarked) [Compound No. 52, 6,8-Dimethoxycarbonyl-2,5-di-p-tolyl-7-hydroxy-1,9-diazabicyclo[4.3.0]nona-3,8-diene]",49.3
10,"COC(=O)C1=NN2C(c3ccc(C(C)=O)cc3)C=CC(c3ccc(C(C)=O)cc3)C2(C(=O)OC)C1O (centres unmarked) [Compound No. 51, 2,5-Bis-(4-acetylphenyl)-6,8-dimethoxycarbonyl-7-hydroxy-1,9-diazabicyclo[4.3.0]nona-3,8-diene]",55.0
11,"COC(=O)C1=NN2C(c3ccccc3)C=CC(c3ccccc3)C2(C(=O)OC)C1N (centres unmarked) [Compound No. 94, 7-Amino-6,8-dimethoxycarbonyl-2,5-diphenyl-1,9-diazabicyclo[4.3.0]nona-3,8-diene]",73.5
12,"COC(=O)C1=NN2C(c3ccc([N+](=O)[O-])cc3)C=CC(c3ccc([N+](=O)[O-])cc3)C2(C(=O)OC)C1O (centres unmarked) [Compound No. 53, 6,8-Dimethoxycarbonyl-2,5-di(4-nitro)phenyl-7-hydroxy-1,9-diazabicyclo[4.3.0]nona-3,8-diene]",60.0
13,"CCOC(=O)C1=NN2CC(C)=C(C)CC2(C(=O)OCC)C1O (centres unmarked) [Compound No. 29, 6,8-Diethoxycarbonyl-3,4-dimethylbicyclo[4.3.0]-1,9-diazanona-3,8-dien-7-ol]",44.2
14,"CCN(CC)C(=O)C1=NN2C(c3ccccc3)C=CC(c3ccccc3)C2(C(=O)OC)C1O (centres unmarked) [Compound No. 173, 8-Diethylcarbamoyl-2,5-diphenyl-7-hydroxy-6-methoxycarbonyl-1,9-diazabicyclo[4.3.0]nona-3,8-diene]",61.0
